For assay [1], the system named is Rhino mouse. The experiment in a line: Comedolytic effect of topical application to the Rhino mouse (comedone area). The format is in vivo. Conditions: for response vs control in vivo at 0.217 µmol/kg: dose 217 nmol/kg; for comedone area relative to vehicle-treated group (FIG. 8, 9, 10): 217 nmole/kgBW/day; for response vs control in vivo at 0.069 µmol/kg: dose 69 nmol/kg; for comedone area (FIG. 7, FIG. 10): 69 nmole/kgBW/day; for comedone area relative to vehicle-treated group (FIG. 11): 72 h after final dose. An excerpt:
(§1) Rhino mice were used to topically and orally test the compounds and compositions of the invention. The Rhino mouse is a well-established animal model used to study the comedolytic effects of anti-acne agents including retinoids. (See Boulcier M et al., Experimental Models in Skin Pharmacology, 1990, In Pharmacological Reviews 42:127-15). Mirshahpanah and Maibach, 2007, Cutaneous and Ocular Toxicology 26:195-202). The Rhino mouse model was used to study the therapeutic potential of 2-Methylene-19-nor-20(S)-1α-hydroxy-bishomopregnacalciferol (2MBisP), 19-Nor-26,27-dimethylene-20(S)-2-methylene-1α,25-dihydroxyvitamin D3 (CAGE-3), NEL, 24R-2MD2, Vit-III (17-20E), 2MPregna, 2MP, 20R-2MbisP, 2MTrisP, FF-44, FF-55, HPBS, VD-03 and atRA.
(§2) Animals and dose administration. Rhino mice 6-10 weeks old were dosed via the oral and/or topical route. In the majority of studies, the mice were dosed daily. In one topical study, the efficacy of daily versus intermittent (Monday/Wednesday/Friday) dosing was compared. The mice were weighed three times per week and doses were adjusted weekly based on body weight. The topical formulations were applied to the back of the animal in a maximum volume of 110 μL. The topical formulations were made by mixing the APIs with a topical carrier comprising 70 vol % propylene glycol and 30 vol % ethanol or 30 vol % propylene glycol and 70 vol % ethanol, as indicated. The topical vehicle control was the vehicle carrier solution matched to the formulation containing API and vehicle carrier.
(§3) The oral formulation was made by mixing the APIs with Wesson® soybean oil or NeoBee® oil. The oral dose was delivered to the back of the mouth of each mouse. Mice were sacrificed 4 hours after the final oral dose and 72 hours after the final topical dose. At sacrifice, the dorsal skin was collected for histological studies.
(§4) Comedolytic effect. The extent of the comedolytic effect (i.e., efficacy) was assessed by measuring the average area of the comedones, whereby the smaller the area, the larger the effect. The comedone area was determined by histological analysis of tissue sections based on a method developed in our lab (see FIG. 2). Skin was fixed overnight in 4% paraformaldehyde at 4 deg. C. with gentle agitation and dehydrated the next day into 100% methanol. Samples were embedded in paraffin and a total of nine 10 micron sections 150 microns apart were prepared from each Rhino mouse. Five of the nine sections were digitally imaged (6× magnification) for comedone analysis using Metamorph Imaging Software (trace function). The perimeter of each comedone on the images taken from the 5 sections was then traced using a Wacom Intuos 3 Graphics Tablet interfaced with the software. The number of pixels comprising the area of each individual comedone was obtained and transferred to an Excel spreadsheet, and the mean number of pixels per comedone was obtained for each Rhino mouse. For comedones that were completely healed (area=0) a pixel value approaching 0 (<10) was entered into the spreadsheet. The individual comedone area average for each mouse was then used to calculate the treatment group mean. Results in the figures are expressed in terms of mean±standard error of the mean.
Preparation of topical formulations containing 2MBisP, CAGE-3, 24R-2MD2, VitIII (17-20E), NEL, VD-03, 2MPregna, 2MP, 20R-2MBisP, 2MTrisP, FF-44, FF-55, and HPBS. Separate concentrated ethanolic stocks of 2MBisP, CAGE-3, 24R-2MD2, VitIII (17-20E) and NEL were diluted to a final concentration containing 70 vol % propylene glycol and 30 vol % ethanol or 30 vol % propylene glycol and 70 vol % ethanol as the excipient carrier system. The mixture was thoroughly mixed. The topical dosing formulation delivered the desired dosing amount of drug on a per kilogram body weight basis. A dose ranging from 100-110 μL in volume was administered to the back of the mouse. An average weight of 24 or 30 g/mouse was assumed in dose volume calculations. […]

For assay [2], the system named is Rhino mouse. Kind of assay: Comedolytic effect of oral administration to the Rhino mouse (comedone area). The format is in vivo. Conditions: oral daily 24 days.
From the text: as §1, §2, §3, §4
Preparation of oral dosing solutions containing 2MBisP, CAGE-3, 24R-2MD2, VitIII (17-20E) and NEL. Separate concentrated stocks of 2MBisP, CAGE-3, 24R-2MD2, VitIII (17-20E) and NEL were obtained in ethanol. The concentration was determined spectrophotometrically using a molar extinction coefficient=42,000 and a λmax=252.7. […] The final dose was delivered in ≦50 μL of oil.
Preparation of oral atRA dosing formulation. A concentrated stock solution containing atRA was prepared in dichloromethane. The atRA concentrated stock solution was diluted into ethanol. The concentration of atRA in that diluted stock solution was determined spectrophotometrically, whereby the molar extinction coefficient=45,200 and λmax=350. The purity of atRA was determined to be >99% by HPLC. […]

Where [3] appears, read: Mus musculus, 504 h, daily topical ca. 3 weeks, 70 vol % ethanol/30 vol % propylene glycol, mean ± SEM, read-out: Comedone Area (% Vehicle).
The mark [4] stands for this setting: daily topical 3 weeks, 70 vol % ethanol/30 vol % propylene glycol.
Where [5] appears, read: topical 217 nmole/kgBW daily (total of 22 doses), 70 vol % ethanol/30 vol % propylene glycol.
The mark [6] stands for this setting: topical 217 nmole/kgBW intermittently Monday, Wednesday, Friday (total of 10 doses), 70 vol % ethanol/30 vol % propylene glycol.

“Also recorded” adds a separate entry of the source.

In the case of “2-(3′hydroxypropyl-1′,2′-idene)-19,23,24-trinor-(20S)-1α-hydroxyvitamin D3 [HPBS]”, the “Comedone Area (% Vehicle)” value with Rhino mouse [1] (daily topical ca. 3 weeks, 70 vol % ethanol/30 vol % propylene glycol, dose 217 to 122 nmol/kg (changed on day 3 or day 10), mean ± SEM) was found to be 74 ± 10 % Vehicle.

For `C=C1/C(=C\C=C2/CCC[C@]3(C)[C@@H]([C@H](C)CCCC(C)(C)O)CC[C@@H]23)C[C@@H](O)C[C@@H]1O` [1,25(OH)2D3, 1,25-DIHYDROXYVITAMIN D3, reference compound], in the assay on Rhino mouse [1] (Mus musculus, 504 h, daily topical ca. 3 weeks, 70 vol % ethanol/30 vol % propylene glycol, dose 6.0 nmol/kg, mean ± SEM, read-out: Comedone Area (% Vehicle)), the response vs control in vivo at 0.006 µmol/kg was found to be 187 ± 30%.

`C=C1[C@H](O)CC(=C/C=C2\CCCC3(C)C2CCC3C(C)C)C[C@H]1O` (stereo partly drawn) [2MP, 1α-hydroxy-2-methylene-19-nor-homopregnacalciferol]: the response vs control in vivo at 0.217 µmol/kg in the assay with Rhino mouse [1] (setting [3]) was found to be 92 ± 20%. In addition, the “comedone area relative to vehicle-treated group (FIG. 8, 9, 10)” value in the assay on Rhino mouse [1] (setting [4]) is recorded as “smaller reduction in comedone area”.

As to `C=C1[C@H](O)CC(=C/C=C2\CCCC3(C)C(CC)CCC23)C[C@H]1O` (stereo partly drawn) [2MPregna, 2-methylene-19-nor-1α-hydroxy-pregnacalciferol], the response vs control in vivo at 0.217 µmol/kg in the assay on Rhino mouse [1] (setting [3]) worked out at 63 ± 14%. Besides, the “comedone area relative to vehicle-treated group (FIG. 8, 9, 10)” value in the assay with Rhino mouse [1] (setting [4]) is listed as “significant reduction in comedone area”.

Turning to `C=C1[C@H](O)CC(=C/C=C2\CCC[C@@]3(C)C2CCC3[C@@H](C)CCC)C[C@H]1O` (stereo partly drawn) [2MTrisP, 2-methylene-(20S)-19-nor-1α-hydroxy-trishomopregnacalciferol], the response vs control in vivo at 0.217 µmol/kg in the assay with Rhino mouse [1] (setting [3]) stood at 66 ± 9%. Besides, in the assay with Rhino mouse [1] (setting [4]), the “comedone area relative to vehicle-treated group (FIG. 8, 9, 10)” value is reported as “significant reduction in comedone area”.

Regarding `C=C1[C@H](O)CC(=C/C=C2\CCC[C@@]3(C)C2CCC3[C@H](C)CC)C[C@H]1O` (stereo partly drawn) [20R-2MBisP, (20R)-1α-hydroxy-2-methylene-19-nor-bishomopregnacalciferol], the response vs control in vivo at 0.217 µmol/kg with Rhino mouse [1] (setting [3]) is 136 ± 17%. Also, the response vs control in vivo at 0.694 µmol/kg with Rhino mouse [1] (Mus musculus, 504 h, daily topical ca. 3 weeks, 70 vol % ethanol/30 vol % propylene glycol, dose 694 nmol/kg, mean ± SEM, read-out: Comedone Area (% Vehicle)) worked out at 45 ± 6%. Further, in the assay on Rhino mouse [1] (Mus musculus, 504 h, daily topical ca. 3 weeks, 70 vol % ethanol/30 vol % propylene glycol, dose 2187 nmol/kg, mean ± SEM, read-out: Comedone Area (% Vehicle)), the response vs control in vivo at 2.187 µmol/kg amounted to 17 ± 3%. For the same compound, the “comedone area relative to vehicle-treated group (FIG. 8, 9, 10)” value with Rhino mouse [1] (setting [4]) is recorded as “insignificant effect”. Also, the “comedone area relative to vehicle-treated group (FIG. 8)” value in the assay with Rhino mouse [1] (daily topical 3 weeks, 70 vol % ethanol/30 vol % propylene glycol, 694 nmole/kgBW/day) was “significant reduction”.

As for `C=C1[C@H](O)CC(=C/C=C2\CCC[C@]3(C)C([C@H](C)/C=C/[C@@H](C)C(C)(C)O)CC[C@@H]23)C[C@H]1O` (stereo partly drawn) [24R-2MD2, 2-methylene-19-nor-(24R)-1α,25-dihydroxyvitamin D2], in the assay with Rhino mouse [1] (Mus musculus, 504 h, daily topical ca. 3 weeks, 70 vol % ethanol/30 vol % propylene glycol, dose 2.3 nmol/kg, mean ± SEM, read-out: Comedone Area (% Vehicle)), the response vs control in vivo at 0.0023 µmol/kg stood at 176 ± 55%. Also, in the assay on Rhino mouse [2] (2.3 nmole/kgBW/day), the “comedone area (FIG. 13)” value is on record as “no significant reduction in comedone area”.

As to `C=C1[C@H](O)CC(=C/C=C2\CCC[C@]3(C)[C@@H]([C@@H](C)CCCC4(O)CCCC4)CC[C@@H]23)C[C@H]1O` [CAGE-3, 19-nor-26,27-dimethylene-20(S)-2-methylene-1α,25-dihydroxyvitamin D3], the “comedone area vs vehicle control (FIG. 3, FIG. 4)” value in the assay on Rhino mouse [1] (topical 3 weeks, 30 vol % ethanol/70 vol % propylene glycol, 0.9 ng/day (ca. 100 pmole/kgBW/day), reduced to 0.45 ng/day on day 10 and 0.22 ng/day on day 19) is “reduction in the comedone area; also recorded: reduced comedone area”. Further, the “comedone area (FIG. 12)” value in the assay with Rhino mouse [2] (68 pmole/kgBW/day) was “reduction in the comedone area”.

Consider `C=C1[C@H](O)CC(=C/C=C2\CCC[C@@]3(C)C2CCC3[C@H](C)CC(F)F)C[C@H]1O` (stereo partly drawn) [FF-44, 2-methylene-(20R)-23,23-difluoro-1α-hydroxy-19-nor-bishomopregnacalciferol], for which, in the assay with Rhino mouse [1] (setting [3]), the response vs control in vivo at 0.069 µmol/kg came out at 104 ± 20% and the response vs control in vivo at 0.217 µmol/kg was determined as 47 ± 12%. Further, in the assay with Rhino mouse [1] (setting [4]), the “comedone area (FIG. 7, FIG. 10)” value is “insignificant effect” and the “comedone area relative to vehicle-treated group (FIG. 8, 9, 10)” value is “significant reduction in comedone area”. Moreover, in the assay with Rhino mouse [1] (setting [5]), the “comedone area relative to vehicle-treated group (FIG. 11)” value is on record as “significant reduction in comedone area”. In addition, in the assay on Rhino mouse [1] (setting [6]), the “comedone area relative to vehicle-treated group (FIG. 11)” value was “significant reduction in comedone area”.

Turning to `C=C1[C@H](O)CC(=C/C=C2\CCC[C@@]3(C)C2CCC3[C@@H](C)CC(F)F)C[C@H]1O` (stereo partly drawn) [FF-55, 2-methylene-(20S)-23,23-difluoro-1α-hydroxy-19-nor-bishomopregnancalciferol], in the assay on Rhino mouse [1] (setting [3]), the response vs control in vivo at 0.069 µmol/kg turned out to be 108 ± 35% and the response vs control in vivo at 0.217 µmol/kg was 53 ± 8%. Moreover, in the assay on Rhino mouse [1] (setting [4]), the “comedone area (FIG. 7, FIG. 10)” value is listed as “insignificant effect” and the “comedone area relative to vehicle-treated group (FIG. 8, 9, 10)” value is given as “significant reduction in comedone area”. For the same compound, in the assay with Rhino mouse [1] (setting [5]), the “comedone area relative to vehicle-treated group (FIG. 11)” value was “significant reduction in comedone area”. Moreover, the “comedone area relative to vehicle-treated group (FIG. 11)” value in the assay with Rhino mouse [1] (setting [6]) is “significant reduction in comedone area”.

In the case of `C=C1[C@H](O)CC(=C/C=C2\CCC[C@]3(C)C([C@H](C)CCC[C@H](C)O)CC[C@@H]23)C[C@H]1O` (stereo partly drawn) [NEL, 2-methylene-(20R,25S)-19,26-dinor-1α,25-dihydroxyvitamin D3], in the assay with Rhino mouse [1] (Mus musculus, 504 h, daily topical ca. 3 weeks, 70 vol % ethanol/30 vol % propylene glycol, dose 7.5 nmol/kg, mean ± SEM, read-out: Comedone Area (% Vehicle)), the response vs control in vivo at 0.0075 µmol/kg is 156 ± 34%. In addition, the response vs control in vivo at 0.025 µmol/kg with Rhino mouse [1] (Mus musculus, 504 h, daily topical ca. 3 weeks, 70 vol % ethanol/30 vol % propylene glycol, dose 25 nmol/kg, mean ± SEM, read-out: Comedone Area (% Vehicle)) stood at 145 ± 24%. In addition, the “comedone area (FIG. 14)” value in the assay on Rhino mouse [2] (7.5 nmole/kgBW/day) and in the assay with Rhino mouse [2] (25 nmole/kgBW/day) was “no significant reduction in comedone area” each time.

With `C=C1[C@H](O)CC(=C/C=C2\CCC[C@@H]3C([C@@H](C)CCCC(C)(C)O)CC[C@@H]23)C[C@H]1O` (stereo partly drawn) [VD-03, 2-methylene-18,19-dinor-(20S)-1α,25-dihydroxyvitamin D3], in the assay on Rhino mouse [1] (Mus musculus, 504 h, daily topical ca. 3 weeks, 70 vol % ethanol/30 vol % propylene glycol, dose 0.62 nmol/kg, mean ± SEM, read-out: Comedone Area (% Vehicle)), the response vs control in vivo at 0.00062 µmol/kg is 90 ± 14%.

These data come from patent publication US9339509B2, “Methods of use to orally and topically treat acne and other skin conditions by administering a 19-nor containing vitamin D analog with or without a retinoid” (Wisconsin Alumni Research Foundation, priority 2006, dated 2016).
